From US4886810A, “Quinoline derivatives, pharmaceutical composition and method of use” (Dainippon Pharmaceutical Co., Ltd., priority 1986, dated 1989)
Converted amounts (≈) assume the structure as drawn. Like-named read-outs stand apart in the source and are kept apart here.

Assays:
[1] = system: S. pyogenes Cook; test: microbe, parasite or virus in culture; format: cell-based
[2] = system: M. bovis P-7101; test: microbe, parasite or virus in culture; format: cell-based; settings: Mycobacterium tuberculosis variant bovis, P7101, 20 h; read-out: minimum inhibitory concentrations (MIC)
[3] = system: M. lacunata P-7102; test: microbe, parasite or virus in culture; format: cell-based
[4] = in vivo; settings: mouse, po
[5] = system: Flavobacterium sp P-7201; test: microbe, parasite or virus in culture; format: cell-based; settings: P7201, 20 h, read-out: minimum inhibitory concentrations (MIC)
[6] = system: S. aureus 209P JC-1; test: microbe, parasite or virus in culture; format: cell-based; settings: Staphylococcus aureus, 20 h, read-out: minimum inhibitory concentrations (MIC)
[7] = system: S. aureus No. 50774; test: microbe, parasite or virus in culture; format: cell-based
[8] = system: male mice (ddY); test: Acute oral toxicity in mice (Table 3); settings: mouse, in vivo
[9] = system: P. aeruginosa 12; test: microbe, parasite or virus in culture; format: cell-based
[10] = system: Gram-positive and Gram-negative bacteria; test: In vitro antibacterial activity, overall; format: cell-based
Description: The numbers in the table show minimum inhibitory concentrations (MIC) (μg/ml), calculated for free base. The minimum inhibitory concentration was determined by the twofold agar-dilution method, which was recommended by Japan Society of Chemotherapy (Chemotherapy, 29(1), (1981)), using Muller-Hinton agar. One loopful of an overnight culture of test organisms in Mueller-Hinton broth was inoculated onto 10-ml drug-containing agar layers in petri dishes. Bacterial inocula contained approximately 10^6 colonyl-forming units. Bacterial growth was observed after 20-hour incubation at 37° C. The MIC was defined as the lowest drug concentration which prevented visible bacterial growth.

[11] = system: S. pyogenes A 65; test: microbe, parasite or virus in culture; format: cell-based
[12] = system: S. aureus No. 80; test: microbe, parasite or virus in culture; format: cell-based
[13] = system: B. abortus kusayanagi; test: microbe, parasite or virus in culture; format: cell-based; settings: Brucella abortus, 20 h; read-out: minimum inhibitory concentrations (MIC)
[14] = system: E. coli P-51213; test: microbe, parasite or virus in culture; format: cell-based
[15] = system: Gram-positive and Gram-negative bacteria; test: In vivo efficacy against systemic infections, overall
Description: Compounds were each dissolved in deionized water. Each of the solutions was orally administered to mice infected with each of the test organisms under the conditions shown hereinbelow, and the median effective dose (ED 50) was calculated by […]. The numerals in the table show ED50 (mg/kg) value, calculated for free base.
Mice: Male mice (ddY-S) weighing about 20 g Infection:
Twice, immediately and 6 hours after infection.
For 14 days in case of Staphylococcus aureus 50774.
For 7 days in case of other organisms.

[16] = system: Pseudomonas aeruginosa 12; test: animal or person; format: in vivo; settings: for ED50: Pseudomonas aeruginosa, 12, in Mus musculus, po, 168 h, 7 days, read-out: median effective dose (ED50)
[17] = system: Streptococcus pyogenes A65; test: animal or person; format: in vivo; settings: A65, in Mus musculus, po, 168 h, 7 days, read-out: median effective dose (ED50)
[18] = system: Staphylococcus aureus 50774; test: animal or person; format: in vivo; settings: Staphylococcus aureus, 50774, in Mus musculus, po, 336 h, read-out: median effective dose (ED50)
[19] = Streptococcus pyogenes, 20 h; read-out: minimum inhibitory concentrations (MIC)
[20] = 20 h; read-out: minimum inhibitory concentrations (MIC)
[21] = Staphylococcus aureus, NO.50774, 20 h; read-out: minimum inhibitory concentrations (MIC)
[22] = Pseudomonas aeruginosa, 12, 20 h; read-out: minimum inhibitory concentrations (MIC)
[23] = Streptococcus pyogenes, A65, 20 h; read-out: minimum inhibitory concentrations (MIC)
[24] = Staphylococcus aureus, NO.80, 20 h; read-out: minimum inhibitory concentrations (MIC)
[25] = Escherichia coli, P51213, 20 h; read-out: minimum inhibitory concentrations (MIC)

Row | Compound | MIC [1, 19] [µg/mL] | MIC [2] [µg/mL] | MIC [3, 20] [µg/mL] | LD50 at 168 h [4] [mg/kg] | MIC [5] [µg/mL] | MIC [6] [µg/mL] | MIC [7, 21] [µg/mL] | toxicity (in words) [8] | MIC [9, 22] [µg/mL] | antibacterial activity against Gram-positive and Gram-negative bacteria (in words) [10] | MIC [11, 23] [µg/mL] | MIC [12, 24] [µg/mL] | MIC [13] [µg/mL] | MIC [14, 25] [µg/mL] | further results
1 | C[C@H]1CN(c2c(F)c(F)c3c(=O)c(C(=O)O)cn(C4CC4)c3c2F)C[C@H]1N (relative stereo) [Compound 2, 1-cyclopropyl-5,6,8-trifluoro-7-(cis3-amino-4-methyl-1-pyrrolidinyl)-1,4-dihydro-4-oxoquinoline-3-carboxylic acid] | 0.2 (≈ 0.524 µM) | 0.39 (≈ 1.02 µM) | 0.78 (≈ 2.05 µM) | > 2000 | 0.2 (≈ 0.524 µM) | 0.05 (≈ 0.131 µM) | 0.05 (≈ 0.131 µM) | low oral toxicity | 0.39 (≈ 1.02 µM) | very high antibacterial activities | 0.39 (≈ 1.02 µM) | 0.05 (≈ 0.131 µM) | 0.78 (≈ 2.05 µM) | 0.05 (≈ 0.131 µM) | 
2 | C[C@@H]1CN(c2c(F)c(N)c3c(=O)c(C(=O)O)cn(C4CC4)c3c2F)C[C@H]1N (relative stereo) [Compound 5, 5-amino-7-(trans-3-amino-4-methyl-1-pyrrolidinyl)-1-cyclopropyl-6,8-difluoro-1,4-dihydro-4-oxoquinoline-3-carboxylic acid] | 0.1 (≈ 0.264 µM) | 0.1 (≈ 0.264 µM) | 0.39 (≈ 1.03 µM) | > 2000 | 0.05 (≈ 0.132 µM) | 0.025 (≈ 0.0661 µM) | 0.0125 (≈ 0.033 µM) | low oral toxicity | 0.1 (≈ 0.264 µM) | very high antibacterial activities | 0.1 (≈ 0.264 µM) | 0.0125 (≈ 0.033 µM) | 0.2 (≈ 0.529 µM) | 0.025 (≈ 0.0661 µM) | 
3 | CC1(N)CCN(c2c(F)c(N)c3c(=O)c(C(=O)O)cn(C4CC4)c3c2F)C1 (centres unmarked) [Compound 3, 5-amino-7-(3-amino-3-methyl-1-pyrrolidinyl)-1-cyclopropyl-6,8-difluoro-1,4-dihydro-4-oxoquinoline-3-carboxylic acid] | 0.1 (≈ 0.264 µM) | 0.2 (≈ 0.529 µM) | 0.78 (≈ 2.06 µM) | > 2000 | 0.1 (≈ 0.264 µM) | 0.025 (≈ 0.0661 µM) | 0.025 (≈ 0.0661 µM) | low oral toxicity | 0.2 (≈ 0.529 µM) | very high antibacterial activities | 0.1 (≈ 0.264 µM) | 0.0063 (≈ 0.0166 µM) | 0.39 (≈ 1.03 µM) | 0.05 (≈ 0.132 µM) | therapeutic effect on infections by Gram-positive and Gram-negative bacteria (in words) ([15]; in vivo): potent therapeutic effects; therapeutic effect compared with Compounds A and B (in words) ([15]; versus Compounds A and B, systemic infections, mice): better therapeutic effects; ED50 [16]: 1.68 mg/kg; efficacy against systemic infection by P. aeruginosa 12 compared with Compound A (in words) ([16]; in vivo): better efficacy; ED50 [17]: 9.14 mg/kg
4 | CCC1(N)CCN(c2c(F)c(N)c3c(=O)c(C(=O)O)cn(C4CC4)c3c2F)C1 (centres unmarked) [Compound 4, 5-amino-7-(3-amino-3-ethyl-1-pyrrolidinyl)-1-cyclopropyl-6,8-difluoro-1,4-dihydro-4-oxoquinoline-3-carboxylic acid] | 0.1 (≈ 0.255 µM) | 0.2 (≈ 0.51 µM) | 0.78 (≈ 1.99 µM) | > 2000 | 0.05 (≈ 0.127 µM) | 0.025 (≈ 0.0637 µM) | 0.025 (≈ 0.0637 µM) | low oral toxicity | 0.2 (≈ 0.51 µM) | very high antibacterial activities | 0.2 (≈ 0.51 µM) | 0.0063 (≈ 0.0161 µM) | 0.39 (≈ 0.994 µM) | 0.05 (≈ 0.127 µM) | 
5 | C[C@H]1CN(c2c(F)c(N)c3c(=O)c(C(=O)O)cn(C4CC4)c3c2F)C[C@H]1CN.Cl (relative stereo) [Compound 6, 5-amino-7-(cis-3-aminomethyl-4-methyl-1-pyrrolidinyl)-1-cyclopropyl-6,8-difluoro-1,4-dihydro-4-oxoquinoline-3-carboxylic acid hydrochloride] | 0.0063 | 0.2 | 0.2 |  | 0.025 | < 0.0031 | 0.0031 |  | 0.1 |  | 0.0125 | 0.0031 | 0.39 | 0.0125 | 
6 | Cl.O=C(O)c1cn(C2CC2)c2cc(N3CCNCC3)c(F)cc2c1=O [Compound B, 1-cyclopropyl-6-fluoro-7-(1-piperazinyl)-1,4-dihydro-4-oxoquinoline-3carboxylic acid hydrochloride, reference compound] |  |  |  |  | 0.39 | 0.1 |  |  |  |  |  |  |  |  | MIC ([1]; Streptococcus pyogenes, 20 h, read-out: minimum inhibitory concentrations (MIC)): 0.2 µg/mL; MIC ([3]; 20 h, read-out: minimum inhibitory concentrations (MIC)): 6.25 µg/mL; MIC ([7]; Staphylococcus aureus, NO.50774, 20 h, read-out: minimum inhibitory concentrations (MIC)): 0.1 µg/mL; ED50 [18]: 11.7 mg/kg; MIC ([9]; Pseudomonas aeruginosa, 12, 20 h, read-out: minimum inhibitory concentrations (MIC)): 0.1 µg/mL; MIC ([11]; Streptococcus pyogenes, A65, 20 h, read-out: minimum inhibitory concentrations (MIC)): 0.2 µg/mL; MIC ([12]; Staphylococcus aureus, NO.80, 20 h, read-out: minimum inhibitory concentrations (MIC)): 0.39 µg/mL; MIC ([14]; Escherichia coli, P51213, 20 h, read-out: minimum inhibitory concentrations (MIC)): 0.05 µg/mL
7 | CCn1cc(C(=O)O)c(=O)c2c(N)c(F)c(N3CCNCC3)c(F)c21 [Compound A, 5-amino-1-ethyl-6,8-difluoro-7-(1piperazinyl)-1,4-dihydro-4-oxoquinoline-3-carboxylic acid, reference compound] | 6.25 (≈ 17.7 µM) | 3.13 (≈ 8.88 µM) | 6.25 (≈ 17.7 µM) |  | 0.78 (≈ 2.21 µM) | 0.2 (≈ 0.568 µM) | 0.2 (≈ 0.568 µM) |  | 0.78 (≈ 2.21 µM) |  | 12.5 (≈ 35.5 µM) | 0.2 (≈ 0.568 µM) | 3.13 (≈ 8.88 µM) | 0.39 (≈ 1.11 µM) | ED50 [16]: 15 mg/kg; ED50 [17]: > 25 mg/kg
